Measured values taken from ChEMBL document CHEMBL1151779, “Exploration of a fundamental substituent effect of alpha-ketoheterocycle enzyme inhibitors: Potent and selective inhibitors of fatty acid amide hydrolase” (Bioorg Med Chem Lett, 2008).

What was measured:
[1] = Selectivity ratio of IC50 for KIAA1363 to IC50 for rat FAAH
[2] = Selectivity ratio of IC50 for TGH to IC50 for rat FAAH
[3] = target: T1, Fatty-acid amide hydrolase 1 (Rattus norvegicus, UniProt P97612); test: Inhibition of rat FAAH
T1 sequence (P97612 whole entry): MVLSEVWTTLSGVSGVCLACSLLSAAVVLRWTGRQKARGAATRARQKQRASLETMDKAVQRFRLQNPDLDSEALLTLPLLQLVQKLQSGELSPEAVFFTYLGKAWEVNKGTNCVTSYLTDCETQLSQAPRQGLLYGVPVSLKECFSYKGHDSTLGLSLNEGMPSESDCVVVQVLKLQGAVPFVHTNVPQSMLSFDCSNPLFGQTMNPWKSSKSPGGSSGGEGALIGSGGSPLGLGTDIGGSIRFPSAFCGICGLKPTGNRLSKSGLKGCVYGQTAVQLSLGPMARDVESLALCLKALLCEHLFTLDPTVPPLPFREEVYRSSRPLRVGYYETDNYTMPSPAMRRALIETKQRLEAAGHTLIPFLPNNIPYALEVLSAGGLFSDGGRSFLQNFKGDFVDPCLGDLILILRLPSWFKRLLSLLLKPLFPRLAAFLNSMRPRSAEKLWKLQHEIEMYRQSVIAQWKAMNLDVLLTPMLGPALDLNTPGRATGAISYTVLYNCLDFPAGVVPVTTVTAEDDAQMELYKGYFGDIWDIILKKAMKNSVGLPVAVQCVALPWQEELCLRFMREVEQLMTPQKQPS

[4] = target: T2, Neutral cholesterol ester hydrolase 1 (Homo sapiens, UniProt Q6PIU2); test: Inhibition of KIAA1363
T2 sequence (Q6PIU2 whole entry): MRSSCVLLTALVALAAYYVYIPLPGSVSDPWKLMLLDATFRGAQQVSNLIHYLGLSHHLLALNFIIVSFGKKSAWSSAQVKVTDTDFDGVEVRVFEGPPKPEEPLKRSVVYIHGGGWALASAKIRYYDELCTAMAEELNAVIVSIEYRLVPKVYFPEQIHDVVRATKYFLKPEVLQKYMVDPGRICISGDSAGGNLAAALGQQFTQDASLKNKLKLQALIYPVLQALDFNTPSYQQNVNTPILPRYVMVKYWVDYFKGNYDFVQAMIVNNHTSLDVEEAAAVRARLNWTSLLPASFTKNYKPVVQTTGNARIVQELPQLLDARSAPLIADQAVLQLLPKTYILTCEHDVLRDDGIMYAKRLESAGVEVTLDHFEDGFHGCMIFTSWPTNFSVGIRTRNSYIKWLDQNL

Liver carboxylesterase 1 = target: T3, Liver carboxylesterase 1 (Homo sapiens, UniProt P23141); test: Inhibition of TGH
T3 sequence (P23141 whole entry): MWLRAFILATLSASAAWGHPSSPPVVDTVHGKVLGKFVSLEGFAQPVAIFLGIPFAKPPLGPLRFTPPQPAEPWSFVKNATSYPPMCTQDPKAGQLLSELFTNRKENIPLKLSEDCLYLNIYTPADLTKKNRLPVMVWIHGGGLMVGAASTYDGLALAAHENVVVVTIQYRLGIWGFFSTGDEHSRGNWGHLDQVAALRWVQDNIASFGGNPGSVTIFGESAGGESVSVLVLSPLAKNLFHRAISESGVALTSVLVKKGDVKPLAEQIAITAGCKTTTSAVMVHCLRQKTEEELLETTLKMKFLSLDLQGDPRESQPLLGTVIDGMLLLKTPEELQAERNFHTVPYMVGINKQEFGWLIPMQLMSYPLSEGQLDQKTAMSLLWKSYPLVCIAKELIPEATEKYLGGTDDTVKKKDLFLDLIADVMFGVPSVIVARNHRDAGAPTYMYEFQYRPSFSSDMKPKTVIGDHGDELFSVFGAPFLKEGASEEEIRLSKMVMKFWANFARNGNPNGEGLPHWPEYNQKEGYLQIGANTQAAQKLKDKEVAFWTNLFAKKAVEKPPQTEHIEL

Row | Ratio IC50 [1] | Ratio IC50 [2] | IC50 [3] [nM] | IC50 [4] [nM] | IC50 (Liver carboxylesterase 1) [nM] | SMILES
1 | > 100 | > 100 | 900 |  |  | O=C(O)c1cnc(C(=O)CCCCCCc2ccccc2)o1
2 | > 700 | 1.5 | 20 | 30000 | 30 | N#Cc1coc(C(=O)CCCCCCc2ccccc2)n1
3 | > 200 |  | 400 | 10000 | 60 | O=C(CCCCCCc1ccccc1)c1nc(C(F)(F)F)co1
4 | > 1400 | 3 | 70 |  |  | O=C(CCCCCCc1ccccc1)c1ncc(C(F)(F)F)o1
5 | 1500 | 5 | 140 | > 100000 | 700 | O=C(CCCCCCc1ccccc1)c1nc(-c2ccncc2)co1
6 | > 3000 | 5 | 500 | > 100000 | 2500 | O=C(O)c1coc(C(=O)CCCCCCc2ccccc2)n1
7 | 25 | 330 | 30 | > 100000 | 10000 | O=C(CCCCCCc1ccccc1)c1nc(-c2ccccn2)co1
